US20240156974A1, “COMPOSITIONS AND METHODS FOR MODULATION OF ANTIBODY ACTIVITY” (Institute For Cancer Research D/B/A Tha Research Institute …, priority 2021, published 2024)

System: CTLA-4/CD80 interaction
Assay: In vitro CTLA-4/CD80 HTRF binding assay with triple-mutant anti-CTLA-4 scFv (Rip3)
Details: no cathepsin B; up to 75 μM JK43 and prodrug; FIG. 2
Experimental: In addition to the above, an in vitro CTLA-4/CD80 HTRF (homogeneous time resolved fluorescence) binding assay was performed with cathepsin B activatable prodrug. Specifically, the HTRF assay was used to assess the ability of antibodies to block the CTLA-4/CD80 interaction using a CTLA-4/CD80 binding assay kit (cat. no. 64CTLA80PEG; Cisbio (Codolet, France)). […]
To the above, 4 μL of Tag1-CD80 protein and 4 μL of Tag2-CTLA-4 were added into a black 384-well low volume plate and then incubated at 37° C. for 10 minutes. […] These were used to measure the fluorescence energy transfer between donor Anti-Tag1 Eu Cryptate and acceptor Anti-Tag d2 reagent. Data was collected at different time points (1, 3, 8, 12 and 24 hours) and the FRET signals were measured on a envision multimode plate reader (PerkinElmer, Shelton, CT) using 340 nm as the excitation wavelength, a 620 nm filter for the Eu donor fluorescence detection, and a 665 nm filter for the acceptor fluorescence detection. HTRF signals were calculated as a ratio as follows: (intensity of 665 nm)/(intensity of 620 nm)×10,000, which was plotted against the WT/triple mutant antibody (5GSWT and 5GS 3′M (Rip3)) concentration to derive the EC50.

## c1ccc(COc2ccc3cn[nH]c3c2)cc1 [Stitch3, 6-phenylmethoxy-1H-indazole]
  rescue of the activity of the triple mutant scFv variant (Rip3): rescues the activity
